Reference: US11000033B2, “Ketone or oxime compound, and herbicide” (NISSAN CHEMICAL CORPORATION, priority 2014, dated 2021)

Legend:
Format in all cases: in vivo
Stellaria media [1] = test: Test Example 5: herbicidal effect by foliage application, plastic box (symbol P); conditions: 320 g/ha, 3 weeks after application
Method in brief: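 Visual herbicidal score, taken three weeks post-application, of seedlings sprayed on the foliage with water-diluted emulsion at a predetermined amount; plants were 14 days old, greenhouse-raised at 25° C. to 30° C.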

[2] = system: Echinochloa crus-galli var. crus-galli; test: Test Example 3: herbicidal effect by foliage application, Wagner pot (symbol H); conditions: application herbicide amount 320 g/ha
Method in brief: (§1)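 Plants sown in submerged alluvial soil (water depth 0.1–0.5 cm) in a 25–30 °C greenhouse and grown 14 days. An emulsion of the compound diluted in water to a set herbicide amount was sprayed uniformly on foliage. Effect on each plant scored 3 weeks after application.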

rapeseed = test: Test Example 5: effect on crop by foliage application, plastic box (symbol g); conditions: 320 g/ha, 3 weeks after application
Method in brief: (§2)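 Crop and weed seeds sown in spots in sterilized diluvial soil in plastic boxes and covered with about 1.5 cm soil. Plants raised in a greenhouse at 25° C. to 30° C. for foliar application.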

Abutilon theophrasti = test: Test Example 4: herbicidal effect by soil treatment (symbol M); conditions: application herbicide amount 320 g/ha
Method in brief: (§3)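 Seeds were sown in sterilized diluvial soil, covered with about 1.5 cm of soil, and the soil surface was sprayed with a water-diluted emulsion of the compound at a predetermined rate. Plants grew in a greenhouse at 25° C. to 30° C.; effects were scored visually 3 weeks after application.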

[3] = system: Echinochloa oryzacola Vasing.; test: Test Example 2: herbicidal activity, application during weed generation in submerged conditions (symbol A); conditions: Table 23; application herbicide amount 320 g/ha; grade 0-5 by criteria of Test Example 1
Method in brief: (§4)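 Seeds sown in flooded alluvial soil (4 cm water) were grown in a 25-30° C greenhouse. At the one- to two-leaf stage, diluted emulsion of compound was applied to the water surface at a predetermined rate. Effect was scored 3 weeks later.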

Monochoria vaginalis = test: Test Example 2: herbicidal activity, application during weed generation in submerged conditions (symbol C); conditions: Table 23; application herbicide amount 320 g/ha; grade 0-5 by criteria of Test Example 1
Method in brief: as §4

Setaria viridis = test: Test Example 4: herbicidal effect by soil treatment (symbol G); conditions: application herbicide amount 320 g/ha
Method in brief: as §3

wheat = test: Test Example 5: effect on crop by foliage application, plastic box (symbol e); conditions: 320 g/ha, 3 weeks after application
Method in brief: as §2

Stellaria media [4] = test: Test Example 4: herbicidal effect by soil treatment (symbol P); conditions: application herbicide amount 320 g/ha
Method in brief: as §3

Digitaria ciliaris = test: Test Example 4: herbicidal effect by soil treatment (symbol F); conditions: application herbicide amount 320 g/ha
Method in brief: as §3

Alopecurus myosuroides = test: Test Example 4: herbicidal effect by soil treatment (symbol J); conditions: application herbicide amount 320 g/ha
Method in brief: as §3

Leptochloa chinensis = test: Test Example 3: herbicidal effect by foliage application, Wagner pot (symbol D); conditions: application herbicide amount 320 g/ha
Method in brief: as §1

Veronica persica = test: Test Example 4: herbicidal effect by soil treatment (symbol R); conditions: application herbicide amount 320 g/ha
Method in brief: as §3

corn = test: Test Example 4: effect on crop by soil treatment (symbol c); conditions: application herbicide amount 320 g/ha
Method in brief: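 Greenhouse culture at 25° C. to 30° C. followed sowing of seed in spots on sterilized diluvial soil with a soil cover close to 1.5 cm thick.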

Cyperus difformis = test: Test Example 3: herbicidal effect by foliage application, Wagner pot (symbol E); conditions: application herbicide amount 320 g/ha
Method in brief: as §1

## CC(=O)CC1CC(O)=C(c2c(C)cc(OCC(F)(F)F)cc2C)C1=O (stereo not drawn) [7-015]
Stellaria media [1]
  P: Stellaria media, herbicidal effect (criteria of Test Example 1): 1 (Herbicidal ratio of 5% or higher and lower than 20%)
[2]
  herbicidal effect on H (Echinochloa crus-galli var. crus-galli), grade 0-5: 5 (Herbicidal ratio of 90% or more (almost completely withered))
rapeseed
  g: rapeseed, effect on crop (criteria of Test Example 1): 5 (Herbicidal ratio of 90% or more (almost completely withered))
Abutilon theophrasti
  Herbicidal effect grade, M: Abutilon theophrasti: 0 (Herbicidal ratio of 5% or lower (almost no effect))
[3]
  Herbicidal effect grade, A: Echinochloa oryzacola Vasing.: 5 (Herbicidal ratio of 90% or more (almost completely withered))
Monochoria vaginalis
  Herbicidal effect grade, C: Monochoria vaginalis: 0 (Herbicidal ratio of 5% or lower (almost no effect))
Setaria viridis
  Herbicidal effect grade, G: Setaria viridis: 5 (Herbicidal ratio of 90% or more (almost completely withered))
wheat
  e: wheat, effect on crop (criteria of Test Example 1): 5 (Herbicidal ratio of 90% or more (almost completely withered))
Stellaria media [4]
  Herbicidal effect grade, P: Stellaria media: 0 (Herbicidal ratio of 5% or lower (almost no effect))
Digitaria ciliaris
  Herbicidal effect grade, F: Digitaria ciliaris: 5 (Herbicidal ratio of 90% or more (almost completely withered))
Alopecurus myosuroides
  Herbicidal effect grade, J: Alopecurus myosuroides: 5 (Herbicidal ratio of 90% or more (almost completely withered))
Leptochloa chinensis
  herbicidal effect on D (Leptochloa chinensis), grade 0-5: 5 (Herbicidal ratio of 90% or more (almost completely withered))
Veronica persica
  Herbicidal effect grade, R: Veronica persica: 0 (Herbicidal ratio of 5% or lower (almost no effect))
corn
  Effect on crop grade, c: corn: 5 (Herbicidal ratio of 90% or more (almost completely withered))
Cyperus difformis
  herbicidal effect on E, grade 0-5: 5 (Herbicidal ratio of 90% or more (almost completely withered))

## CC(=O)CC1CC(O)=C(c2c(C)cc(OCc3ccccc3)cc2C)C1=O (stereo not drawn) [7-018]
Stellaria media [1]
  P: Stellaria media, herbicidal effect (criteria of Test Example 1): 0 (Herbicidal ratio of 5% or lower (almost no effect))
[2]
  herbicidal effect on H (Echinochloa crus-galli var. crus-galli), grade 0-5: 3 (Herbicidal ratio of 40% or higher and lower than 70%)
rapeseed
  g: rapeseed, effect on crop (criteria of Test Example 1): 0 (Herbicidal ratio of 5% or lower (almost no effect))
Abutilon theophrasti
  Herbicidal effect grade, M: Abutilon theophrasti: 0 (Herbicidal ratio of 5% or lower (almost no effect))
[3]
  Herbicidal effect grade, A: Echinochloa oryzacola Vasing.: 1 (Herbicidal ratio of 5% or higher and lower than 20%)
Monochoria vaginalis
  Herbicidal effect grade, C: Monochoria vaginalis: 0 (Herbicidal ratio of 5% or lower (almost no effect))
Setaria viridis
  Herbicidal effect grade, G: Setaria viridis: 1 (Herbicidal ratio of 5% or higher and lower than 20%)
wheat
  e: wheat, effect on crop (criteria of Test Example 1): 0 (Herbicidal ratio of 5% or lower (almost no effect))
Stellaria media [4]
  Herbicidal effect grade, P: Stellaria media: 0 (Herbicidal ratio of 5% or lower (almost no effect))
Digitaria ciliaris
  Herbicidal effect grade, F: Digitaria ciliaris: 3 (Herbicidal ratio of 40% or higher and lower than 70%)
Alopecurus myosuroides
  Herbicidal effect grade, J: Alopecurus myosuroides: 0 (Herbicidal ratio of 5% or lower (almost no effect))
Leptochloa chinensis
  herbicidal effect on D (Leptochloa chinensis), grade 0-5: 5 (Herbicidal ratio of 90% or more (almost completely withered))
Veronica persica
  Herbicidal effect grade, R: Veronica persica: 0 (Herbicidal ratio of 5% or lower (almost no effect))
corn
  Effect on crop grade, c: corn: 0 (Herbicidal ratio of 5% or lower (almost no effect))
Cyperus difformis
  herbicidal effect on E, grade 0-5: 3 (Herbicidal ratio of 40% or higher and lower than 70%)

## COc1cc(C)c(C2=C(O)CC(CC(C)=O)C2=O)c(C)c1 (stereo not drawn) [7-020]
Stellaria media [1]
  P: Stellaria media, herbicidal effect (criteria of Test Example 1): 0 (Herbicidal ratio of 5% or lower (almost no effect))
[2]
  herbicidal effect on H (Echinochloa crus-galli var. crus-galli), grade 0-5: 4 (Herbicidal ratio of 70% or higher and lower than 90%)
rapeseed
  g: rapeseed, effect on crop (criteria of Test Example 1): 2 (Herbicidal ratio of 20% or higher and lower than 40%)
Abutilon theophrasti
  Herbicidal effect grade, M: Abutilon theophrasti: 0 (Herbicidal ratio of 5% or lower (almost no effect))
[3]
  Herbicidal effect grade, A: Echinochloa oryzacola Vasing.: 1 (Herbicidal ratio of 5% or higher and lower than 20%)
Monochoria vaginalis
  Herbicidal effect grade, C: Monochoria vaginalis: 0 (Herbicidal ratio of 5% or lower (almost no effect))
Setaria viridis
  Herbicidal effect grade, G: Setaria viridis: 2 (Herbicidal ratio of 20% or higher and lower than 40%)
wheat
  e: wheat, effect on crop (criteria of Test Example 1): 0 (Herbicidal ratio of 5% or lower (almost no effect))
Stellaria media [4]
  Herbicidal effect grade, P: Stellaria media: 0 (Herbicidal ratio of 5% or lower (almost no effect))
Digitaria ciliaris
  Herbicidal effect grade, F: Digitaria ciliaris: 3 (Herbicidal ratio of 40% or higher and lower than 70%)
Alopecurus myosuroides
  Herbicidal effect grade, J: Alopecurus myosuroides: 3 (Herbicidal ratio of 40% or higher and lower than 70%)
Leptochloa chinensis
  herbicidal effect on D (Leptochloa chinensis), grade 0-5: 5 (Herbicidal ratio of 90% or more (almost completely withered))
Veronica persica
  Herbicidal effect grade, R: Veronica persica: 0 (Herbicidal ratio of 5% or lower (almost no effect))
corn
  Effect on crop grade, c: corn: 0 (Herbicidal ratio of 5% or lower (almost no effect))
Cyperus difformis
  herbicidal effect on E, grade 0-5: 3 (Herbicidal ratio of 40% or higher and lower than 70%)

## CC(=O)CC1CC(O)=C(c2c(C)cc(-n3cccn3)cc2C)C1=O (stereo not drawn) [7-024]
Stellaria media [1]
  P: Stellaria media, herbicidal effect (criteria of Test Example 1): 0 (Herbicidal ratio of 5% or lower (almost no effect))
[2]
  herbicidal effect on H (Echinochloa crus-galli var. crus-galli), grade 0-5: 5 (Herbicidal ratio of 90% or more (almost completely withered))
rapeseed
  g: rapeseed, effect on crop (criteria of Test Example 1): 2 (Herbicidal ratio of 20% or higher and lower than 40%)
Abutilon theophrasti
  Herbicidal effect grade, M: Abutilon theophrasti: 0 (Herbicidal ratio of 5% or lower (almost no effect))
[3]
  Herbicidal effect grade, A: Echinochloa oryzacola Vasing.: 1 (Herbicidal ratio of 5% or higher and lower than 20%)
Monochoria vaginalis
  Herbicidal effect grade, C: Monochoria vaginalis: 0 (Herbicidal ratio of 5% or lower (almost no effect))
Setaria viridis
  Herbicidal effect grade, G: Setaria viridis: 0 (Herbicidal ratio of 5% or lower (almost no effect))
wheat
  e: wheat, effect on crop (criteria of Test Example 1): 0 (Herbicidal ratio of 5% or lower (almost no effect))
Stellaria media [4]
  Herbicidal effect grade, P: Stellaria media: 0 (Herbicidal ratio of 5% or lower (almost no effect))
Digitaria ciliaris
  Herbicidal effect grade, F: Digitaria ciliaris: 4 (Herbicidal ratio of 70% or higher and lower than 90%)
Alopecurus myosuroides
  Herbicidal effect grade, J: Alopecurus myosuroides: 0 (Herbicidal ratio of 5% or lower (almost no effect))
Leptochloa chinensis
  herbicidal effect on D (Leptochloa chinensis), grade 0-5: 5 (Herbicidal ratio of 90% or more (almost completely withered))
Veronica persica
  Herbicidal effect grade, R: Veronica persica: 0 (Herbicidal ratio of 5% or lower (almost no effect))
corn
  Effect on crop grade, c: corn: 0 (Herbicidal ratio of 5% or lower (almost no effect))
Cyperus difformis
  herbicidal effect on E, grade 0-5: 2 (Herbicidal ratio of 20% or higher and lower than 40%)

## COc1cc(Br)cc(C)c1C1=C(O)CC(CC(C)=O)C1=O (stereo not drawn) [7-027, 2-(4-bromo-2-methoxy-6-methylphenyl)-3-hydroxy-5-(2-oxopropyl)cyclopent-2-enone]
Stellaria media [1]
  P: Stellaria media, herbicidal effect (criteria of Test Example 1): 0 (Herbicidal ratio of 5% or lower (almost no effect))
[2]; Table 24
  H (Echinochloa crus-galli var. crus-galli) herbicidal effect grade: 5 (Herbicidal ratio of 90% or more (almost completely withered))
rapeseed
  g: rapeseed, effect on crop (criteria of Test Example 1): 2 (Herbicidal ratio of 20% or higher and lower than 40%)
Abutilon theophrasti
  Herbicidal effect grade, M: Abutilon theophrasti: 0 (Herbicidal ratio of 5% or lower (almost no effect))
[3]
  Herbicidal effect grade, A: Echinochloa oryzacola Vasing.: 3 (Herbicidal ratio of 40% or higher and lower than 70%)
Monochoria vaginalis
  Herbicidal effect grade, C: Monochoria vaginalis: 2 (Herbicidal ratio of 20% or higher and lower than 40%)
Setaria viridis
  Herbicidal effect grade, G: Setaria viridis: 5 (Herbicidal ratio of 90% or more (almost completely withered))
wheat
  e: wheat, effect on crop (criteria of Test Example 1): 0 (Herbicidal ratio of 5% or lower (almost no effect))
Stellaria media [4]
  Herbicidal effect grade, P: Stellaria media: 0 (Herbicidal ratio of 5% or lower (almost no effect))
Digitaria ciliaris
  Herbicidal effect grade, F: Digitaria ciliaris: 5 (Herbicidal ratio of 90% or more (almost completely withered))
Alopecurus myosuroides
  Herbicidal effect grade, J: Alopecurus myosuroides: 5 (Herbicidal ratio of 90% or more (almost completely withered))
Leptochloa chinensis; Table 24
  D (Leptochloa chinensis) herbicidal effect grade: 5 (Herbicidal ratio of 90% or more (almost completely withered))
Veronica persica
  Herbicidal effect grade, R: Veronica persica: 0 (Herbicidal ratio of 5% or lower (almost no effect))
corn
  Effect on crop grade, c: corn: 3 (Herbicidal ratio of 40% or higher and lower than 70%)
Cyperus difformis; Table 24
  E herbicidal effect grade: 4 (Herbicidal ratio of 70% or higher and lower than 90%)
